{
  "source": "ChEMBL document CHEMBL1132019",
  "about": "“RNA-aminoglycoside antibiotic interactions: fluorescence detection of binding and conformational change” (Bioorg Med Chem Lett, 1999)",
  "key": {"[1]": {"assay": "Compound was evaluated for the apparent first-order binding constant (K) at a concentration of 90 uM to 5 mM"}, "[2]": {"assay": "Compound was tested for inhibition against hammer head ribozyme complex (HH16-F)"}, "[3]": {"assay": "Compound was evaluated for the apparent second-order binding constant (K) at a concentration of 90 uM to 5 mM"}},
  "data": [
    {"smiles": "NC[C@@H]1O[C@H](O[C@H]2[C@@H](O)[C@H](O[C@@H]3[C@@H](O)[C@H](N)C[C@H](N)[C@H]3O[C@H]3O[C@H](CN)[C@@H](O)[C@H](O)[C@H]3N)O[C@@H]2CO)[C@H](N)[C@@H](O)[C@@H]1O", "note": "[FRAMYCETIN]", "values": [
      {"measurement": "K", "setting": "[1]", "result": 4, "unit": "M⁻¹"},
      {"measurement": "Ki", "setting": "[2]", "result": 13.5, "unit": "µM"},
      {"measurement": "K", "setting": "[3]", "result": "8 M-2"}
    ]}
  ]
}
